Results from PubChem BioAssay (NCI).
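Dose response: 5 concentrations. Exposure: 48 h. Format: 96-well plates. Endpoint: linear interpolation; highest concentration if not reached. TGI: total growth inhibition.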

What was measured:
Test in all cases: NCI-60 cell line screen, 48 h
PC-3 prostate = test system: PC-3 prostate
OVCAR-8 ovarian = test system: OVCAR-8 ovarian
HS 578T breast = test system: HS 578T breast
SK-MEL-2 melanoma = test system: SK-MEL-2 melanoma
HCT-116 colon = test system: HCT-116 colon
KM12 colon = test system: KM12 colon
HT29 colon = test system: HT29 colon
OVCAR-5 ovarian = test system: OVCAR-5 ovarian
SNB-19 CNS = test system: SNB-19 CNS
MALME-3M melanoma = test system: MALME-3M melanoma
CAKI-1 renal = test system: CAKI-1 renal
RPMI-8226 leukemia = test system: RPMI-8226 leukemia

SMILES	TGI (PC-3 prostate) [µM]	TGI (OVCAR-8 ovarian) [µM]	TGI (HS 578T breast) [µM]	TGI (SK-MEL-2 melanoma) [µM]	TGI (HCT-116 colon) [µM]	TGI (KM12 colon) [µM]	TGI (HT29 colon) [µM]	TGI (OVCAR-5 ovarian) [µM]	TGI (SNB-19 CNS) [µM]	TGI (MALME-3M melanoma) [µM]	TGI (CAKI-1 renal) [µM]	TGI (RPMI-8226 leukemia) [µM]
CCOC(=O)/C(C(=S)NC)=C(/N)N1CCCC1	> 100	> 100	> 100	> 100	> 100	> 100	> 100	> 100	> 100	> 100	> 100	> 100
CCCS(=O)(=O)O	> 100	> 100	> 100	> 100	–	> 100	> 100	> 100	> 100	> 100	> 100	> 100
O=c1oc2ncccc2n1Cc1ccc([N+](=O)[O-])cc1	> 100	> 100	> 100	> 100	> 100	> 100	> 100	> 100	–	> 100	> 100	> 100
CN(Cc1cnc2nc(N)nc(N)c2n1)c1ccc(C(=O)NC(CCS(=O)(=O)O)C(=O)O)cc1 (centres undefined)	> 100	> 100	> 100	> 100	–	> 100	> 100	–	> 100	> 100	> 100	> 100
C=CCN1CCC(OC(=O)C(O)(/C=C\CC)C2CCCC2)CC1 (centres undefined)	> 100	> 100	> 100	> 100	> 100	–	> 100	> 100	> 100	> 100	> 100	> 100
c1ccc(Cc2cccc3cc(-c4ccc(-c5ccccc5)cc4)[nH]c23)cc1	> 100	> 100	84	> 100	> 100	> 100	> 100	> 100	> 100	54	> 100	> 100
C/C(CC(O)(C(F)(F)F)C(F)(F)F)=N\N	> 10	> 10	> 10	> 10	> 10	> 10	> 10	> 10	> 10	> 10	> 10	> 10
O=[N+]([O-])c1cc2n[nH]nc2c2nonc12	> 100	58.1	58.8	> 100	43.7	> 100	> 100	76.5	> 100	> 100	77.7	> 100
O=C(O)CC(NC(=O)C(F)(F)F)C(=O)NC1Cc2ccccc2OC1=O (centres undefined)	> 100	> 100	> 100	> 100	–	> 100	> 100	> 100	> 100	> 100	> 100	> 100
CC(C)OP(=O)(OC(C)C)C(C(F)(F)F)C(F)(F)F	> 100	> 100	> 100	> 100	> 100	> 100	> 100	> 100	> 100	> 100	> 100	> 100
